In patent US10759822B2 (priority 2016, dated 2020):

How the values were obtained:
[1] = system: field EPSP in the rat dentate gyrus; conditions: in vivo, ip; cited from earlier work
[2] = system: 030418-induced acute death in mice; set-up: species or system KM mice; conditions: mouse, in vivo
[3] = system: hyperactivity induced by d-amphetamine; conditions: in vivo, ip, 2 mg/kg; cited from earlier work
[4] = mouse, in vivo
[5] = mouse, in vivo; remark: listed apart in the source
[6] = system: 030418-induced respiratory depression rats; conditions: rat, in vivo

Compound | (AUC0-t)prodrug/(AUC0-t)prototype drug [4] | (AUC0-t)prodrug group/(AUC0-t)prototype drug group [5] | other results
O=C(c1ccc2nccnc2c1)N1CCCCC1 [CX516, 6-(piperidin-1-yl-carbonyl)quinoxaline] | – | – | increase in the amplitude of the field EPSP [1]: 9%
CN(C(=O)c1ccc2nonc2c1)C1CCC(O)CC1 (stereo not drawn) [Compound a, N-(anti-4-hydroxycyclohexyl)-N-methylbenzo[c][1,2,5]oxadiazol-5-yl-carboxamide, reference compound] | – | – | increase in the amplitude of the field EPSP [1]: 21%; Death rate [2]: 20%; inhibition of hyperactivity [3]: 100%
C/C(=C(\CCOC(=O)CCCC(=O)OC1CCC(N(C)C(=O)c2ccc3nonc3c2)CC1)SSCCC(C)C)N(C)C=O (stereo not drawn) [Compound 15, Pentanedioic acid anti-4-[(benzo[c][1,2,5]oxadiazole-5-carbonyl)-methyl-amino]-cyclohexyl ester 3-isopentyldisulfanyl-4-(formyl-methyl-amino)-pent-3-enyl ester] | 2.23 | 0.41 | survival rate of mice [2]: increase the survival rate of mice in a dose-dependent manner; molar dose for the same anti-lethal effect, relative to Compound a ([2]; sc, 15 mg/kg): one-eighth; antagonism toward the decreased respiratory rate and ventilation caused by 030418 [6]: dose-dependent antagonism; effect on respiratory rate and ventilation compared with Compound a [6]: same effect as Compound a (10 mg/kg)
C/C(=C(\CCOC(=O)CCC(=O)OC1CCC(N(C)C(=O)c2ccc3nonc3c2)CC1)SSCCC(C)C)N(C)C=O (stereo not drawn) [Compound 7, Succinic acid anti-4-[(benzo[c][1,2,5]oxadiazole-5-carbonyl)-methyl-amino]-cyclohexyl ester 3-isopentyldisulfanyl-4-(formyl-methyl-amino)-pent-3-enyl ester] | 1.49 | 0.53 | –
C/C(=C(\CCOC(=O)CCCC(=O)OC1CCC(N(C)C(=O)c2ccc3nonc3c2)CC1)SSCC(C)C)N(C)C=O (stereo not drawn) [Compound 13, Pentanedioic acid anti-4-[(benzo[c][1,2,5]oxadiazole-5-carbonyl)-methyl-amino]-cyclohexyl ester 3-isobutyldisulfanyl-4-(formyl-methyl-amino)-pent-3-enyl ester] | 1.96 | 0.60 | –
CCCCCSS/C(CCOC(=O)CCC(=O)OC1CCC(N(C)C(=O)c2ccc3nonc3c2)CC1)=C(/C)N(C)C=O (stereo not drawn) [Compound 6, Succinic acid anti-4-[(benzo[c][1,2,5]oxadiazole-5-carbonyl)-methyl-amino]-cyclohexyl ester 3-pentyldisulfanyl-4-(formyl-methyl-amino)-pent-3-enyl ester] | 1.88 | 0.62 | –
CCSS/C(CCOC(=O)CCCC(=O)OC1CCC(N(C)C(=O)c2ccc3nonc3c2)CC1)=C(/C)N(C)C=O (stereo not drawn) [Compound 9, Pentanedioic acid anti-4-[(benzo[c][1,2,5]oxadiazole-5-carbonyl)-methyl-amino]-cyclohexyl ester 3-ethyldisulfanyl-4-(formyl-methyl-amino)-pent-3-enyl ester] | 1.74 | 0.51 | –
CCCSS/C(CCOC(=O)CCCC(=O)OC1CCC(N(C)C(=O)c2ccc3nonc3c2)CC1)=C(/C)N(C)C=O (stereo not drawn) [Compound 10, Pentanedioic acid anti-4-[(benzo[c][1,2,5]oxadiazole-5-carbonyl)-methyl-amino]-cyclohexyl ester 3-propyldisulfanyl-4-(formyl-methyl-amino)-pent-3-enyl ester] | 1.86 | 0.47 | –
CCCN(C=O)/C(C)=C(/CCOC(=O)CCCC(=O)OC1CCC(N(C)C(=O)c2ccc3nonc3c2)CC1)SSCC (stereo not drawn) [Compound 18, Pentanedioic acid anti-4-[(benzo[c][1,2,5]oxadiazole-5-carbonyl)-methyl-amino]-cyclohexyl ester 3-ethyldisulfanyl-4-(formyl-propyl-amino)-pent-3-enyl ester] | 1.70 | 0.73 | –
C/C(=C(\CCOC(=O)CCC(=O)OC1CCC(N(C)C(=O)c2ccc3nonc3c2)CC1)SSC(C)C)N(C)C=O (stereo not drawn) [Compound 3, Succinic acid anti-4-[(benzo[c][1,2,5]oxadiazole-5-carbonyl)-methyl-amino]-cyclohexyl ester 3-isopropyldisulfanyl-4-(formyl-methyl-amino)-pent-3-enyl ester] | 1.77 | 0.62 | –
C/C(=C(\CCOC(=O)CCC(=O)OC1CCC(N(C)C(=O)c2ccc3nonc3c2)CC1)SSCC(C)C)N(C)C=O (stereo not drawn) [Compound 5, Succinic acid anti-4-[(benzo[c][1,2,5]oxadiazole-5-carbonyl)-methyl-amino]-cyclohexyl ester 3-isobutyldisulfanyl-4-(formyl-methyl-amino)-pent-3-enyl ester] | 1.70 | 0.67 | –
CCCCCSS/C(CCOC(=O)CCCC(=O)OC1CCC(N(C)C(=O)c2ccc3nonc3c2)CC1)=C(/C)N(C)C=O (stereo not drawn) [Compound 14, Pentanedioic acid anti-4-[(benzo[c][1,2,5]oxadiazole-5-carbonyl)-methyl-amino]-cyclohexyl ester 3-pentyldisulfanyl-4-(formyl-methyl-amino)-pent-3-enyl ester] | 1.98 | 0.65 | –
CCCCSS/C(CCOC(=O)CCCC(=O)OC1CCC(N(C)C(=O)c2ccc3nonc3c2)CC1)=C(/C)N(C)C=O (stereo not drawn) [Compound 12, Pentanedioic acid anti-4-[(benzo[c][1,2,5]oxadiazole-5-carbonyl)-methyl-amino]-cyclohexyl ester 3-butyldisulfanyl-4-(formyl-methyl-amino)-pent-3-enyl ester] | 1.92 | 0.46 | –
CCCSS/C(CCOC(=O)CCC(=O)OC1CCC(N(C)C(=O)c2ccc3nonc3c2)CC1)=C(/C)N(C)C=O (stereo not drawn) [Compound 2, Succinic acid anti-4-[(benzo[c][1,2,5]oxadiazole-5-carbonyl)-methyl-amino]-cyclohexyl ester 3-propyldisulfanyl-4-(formyl-methyl-amino)-pent-3-enyl ester] | 1.72 | 0.49 | –
CCSS/C(CCOC(=O)CCCC(=O)OC1CCC(N(C)C(=O)c2ccc3nonc3c2)CC1)=C(/C)N(C=O)CC (stereo not drawn) [Compound 17, Pentanedioic acid anti-4-[(benzo[c][1,2,5]oxadiazole-5-carbonyl)-methyl-amino]-cyclohexyl ester 3-ethyldisulfanyl-4-(formyl-ethyl-amino)-pent-3-enyl ester] | 1.55 | 0.61 | –
C/C(=C(\CCOC(=O)CCCC(=O)OC1CCC(N(C)C(=O)c2ccc3nonc3c2)CC1)SSCc1ccccc1)N(C)C=O (stereo not drawn) [Compound 16, Pentanedioic acid anti-4-[(benzo[c][1,2,5]oxadiazole-5-carbonyl)-methyl-amino]-cyclohexyl ester 3-benzyldisulfanyl-4-(formyl-methyl-amino)-pent-3-enyl ester] | 1.86 | 0.41 | –
